Test system: MV-4-11 cells
Experiment: Gene expression microarray analysis (Affymetrix PrimeView) and GSEA
Type: cell-based, human
Parameters: RFU PODN (11730768_x_at) / Fold change /veh PODN (11730768_x_at) / RFU LINC00158 (11744669_a_at) / Fold change /veh LINC00158 (11744669_a_at) / RFU DUSP10 (11751237_a_at) / Fold change /veh DUSP10 (11751237_a_at) / RFU ID3 (11757404_x_at) / Fold change /veh ID3 (11757404_x_at) / RFU PLEKHG5 (11737974_s_at) / Fold change /veh PLEKHG5 (11737974_s_at) / RFU LRRC4B (11730491_at) / Fold change /veh LRRC4B (11730491_at) / RFU GIMAP4 (11747438_a_at) / Fold change /veh GIMAP4 (11747438_a_at) / RFU KRT8 (11758183_x_at) / Fold change /veh KRT8 (11758183_x_at) / RFU CNN1 (11734310_a_at) / Fold change /veh CNN1 (11734310_a_at) / RFU VPS37D (11726825_at) / Fold change /veh VPS37D (11726825_at) / RFU C10orf10 (11716522_x_at) / Fold change /veh C10orf10 (11716522_x_at) / RFU KIR2DL2 /// KIR2DL4 /// KIR2DL5A /// KIR2DL5B /// KIR2DS1 /// KIR2DS2 /// KIR2DS3 /// KIR2DS4 /// KIR3DL3 /// KIR3DL3 /// KIR3DS1 (11738374_at) / Fold change /veh KIR2DL2 /// KIR2DL4 /// KIR2DL5A /// KIR2DL5B /// KIR2DS1 /// KIR2DS2 /// KIR2DS3 /// KIR2DS4 /// KIR3DL3 /// KIR3DL3 /// KIR3DS1 (11738374_at) / RFU C1QL1 (11718748_at) / Fold change /veh C1QL1 (11718748_at) / RFU TMPRSS4 (11747572_a_at) / Fold change /veh TMPRSS4 (11747572_a_at) / RFU HAMP (11756126_x_at) / Fold change /veh HAMP (11756126_x_at) / RFU RNFT2 (11725882_a_at) / Fold change /veh RNFT2 (11725882_a_at) / RFU NR4A2 (11747474_a_at) / Fold change /veh NR4A2 (11747474_a_at) / RFU ABCC12 (11746883_a_at) / Fold change /veh ABCC12 (11746883_a_at) / RFU TMEM136 (11760407_x_at) / Fold change /veh TMEM136 (11760407_x_at) / RFU CLDN22 /// WWC2 (11732394_at) / Fold change /veh CLDN22 /// WWC2 (11732394_at) / RFU HLA-DPB1 (11760878_x_at) / Fold change /veh HLA-DPB1 (11760878_x_at) / RFU SPINT1 (11716480_a_at) / Fold change /veh SPINT1 (11716480_a_at) / RFU GAP43 (11754022_s_at) / Fold change /veh GAP43 (11754022_s_at) / RFU A4GNT (11735810_at) / Fold change /veh A4GNT (11735810_at) / RFU PRB3 (11715151_x_at) / Fold change /veh PRB3 (11715151_x_at) / RFU TUBB4B (11761932_at) / Fold change /veh TUBB4B (11761932_at) / RFU CAPN14 (11732068_a_at) / Fold change /veh CAPN14 (11732068_a_at) / RFU TMCC2 (11721928_a_at) / Fold change /veh TMCC2 (11721928_a_at) / RFU IRGQ (11745062_a_at) / Fold change /veh IRGQ (11745062_a_at) / RFU FAM174B (11720279_a_at) / Fold change /veh FAM174B (11720279_a_at) / RFU TMPRSS4 (11748680_a_at) / Fold change /veh TMPRSS4 (11748680_a_at) / RFU FAM212B (11763350_a_at) / Fold change /veh FAM212B (11763350_a_at) / RFU PLEKHG5 (11743358_a_at) / Fold change /veh PLEKHG5 (11743358_a_at) / RFU ZSCAN30 (11745921_a_at) / Fold change /veh ZSCAN30 (11745921_a_at) / RFU CMKLR1 (11741424_a_at) / Fold change /veh CMKLR1 (11741424_a_at) / RFU LOC101060620 /// MAPK8IP1 (11723275_at) / Fold change /veh LOC101060620 /// MAPK8IP1 (11723275_at) / RFU SPTSSB (11747773_x_at) / Fold change /veh SPTSSB (11747773_x_at) / RFU PRSS12 (11739890_at) / Fold change /veh PRSS12 (11739890_at) / RFU BIN1 (11741810_x_at) / Fold change /veh BIN1 (11741810_x_at) / RFU WNT11 (11732464_a_at) / Fold change /veh WNT11 (11732464_a_at) / RFU C10orf10 (11716521_a_at) / Fold change /veh C10orf10 (11716521_a_at) / RFU C5orf56 (11738089_at) / Fold change /veh C5orf56 (11738089_at) / RFU CYB561 (11721691_x_at) / Fold change /veh CYB561 (11721691_x_at) / RFU ANKRD19P (11752326_a_at) / Fold change /veh ANKRD19P (11752326_a_at) / RFU OR2T12 /// OR2T33 /// OR2T8 (11738714_s_at) / Fold change /veh OR2T12 /// OR2T33 /// OR2T8 (11738714_s_at) / RFU VCAN (11748164_a_at) / Fold change /veh VCAN (11748164_a_at) / RFU JSRP1 (11732532_at) / Fold change /veh JSRP1 (11732532_at) / RFU KRTAP10-11 (11738290_x_at) / Fold change /veh KRTAP10-11 (11738290_x_at) / RFU MYO3A (11730013_a_at) / Fold change /veh MYO3A (11730013_a_at) / RFU EBF3 (11725865_a_at) / Fold change /veh EBF3 (11725865_a_at) / RFU CAMK2N1 (11719241_x_at) / Fold change /veh CAMK2N1 (11719241_x_at) / RFU C5orf56 (11738088_a_at) / Fold change /veh C5orf56 (11738088_a_at) / RFU OLFML3 (11715873_a_at) / Fold change /veh OLFML3 (11715873_a_at) / RFU LOC100653217 /// NTM (11731650_a_at) / Fold change /veh LOC100653217 /// NTM (11731650_a_at) / RFU MAPK11 (11762145_a_at) / Fold change /veh MAPK11 (11762145_a_at) / RFU FIZ1 (11724087_x_at) / Fold change /veh FIZ1 (11724087_x_at) / RFU OASL (11726364_x_at) / Fold change /veh OASL (11726364_x_at) / RFU SOX15 (11748057_x_at) / Fold change /veh SOX15 (11748057_x_at) / RFU CD79A (11719716_a_at) / Fold change /veh CD79A (11719716_a_at) / RFU HIST1H1D (11736915_at) / Fold change /veh HIST1H1D (11736915_at) / RFU CASKIN2 (11723855_a_at) / Fold change /veh CASKIN2 (11723855_a_at) / RFU LOC730098 (11760151_x_at) / Fold change /veh LOC730098 (11760151_x_at) / RFU OR4N2 (11742367_at) / Fold change /veh OR4N2 (11742367_at) / RFU PRRT2 (11749266_a_at) / Fold change /veh PRRT2 (11749266_a_at) / RFU SNX32 (11753110_a_at) / Fold change /veh SNX32 (11753110_a_at) / RFU CDHR5 (11726645_a_at) / Fold change /veh CDHR5 (11726645_a_at) / RFU RCAN1 (11760418_a_at) / Fold change /veh RCAN1 (11760418_a_at) / RFU FAM167A (11723789_a_at) / Fold change /veh FAM167A (11723789_a_at) / RFU FAM26E (11764081_at) / Fold change /veh FAM26E (11764081_at) / RFU ISYNA1 (11749810_s_at) / Fold change /veh ISYNA1 (11749810_s_at) / RFU ACY1 (11761880_at) / Fold change /veh ACY1 (11761880_at) / RFU 11764098_at / Fold change /veh 11764098_at / RFU SAMD14 (11745864_x_at) / Fold change /veh SAMD14 (11745864_x_at) / RFU NPB (11741838_a_at) / Fold change /veh NPB (11741838_a_at) / RFU TMPRSS6 (11731388_a_at) / Fold change /veh TMPRSS6 (11731388_a_at) / RFU KRTAP10-2 (11738614_at) / Fold change /veh KRTAP10-2 (11738614_at) / RFU ARHGAP8 /// PRR5-ARHGAP8 (11727945_x_at) / Fold change /veh ARHGAP8 /// PRR5-ARHGAP8 (11727945_x_at) / RFU KRTAP5-7 /// NADSYN1 (11734609_at) / Fold change /veh KRTAP5-7 /// NADSYN1 (11734609_at) / RFU RASL12 (11751679_a_at) / Fold change /veh RASL12 (11751679_a_at) / RFU CDKN2B (11736163_a_at) / Fold change /veh CDKN2B (11736163_a_at) / RFU PRF1 (11729649_at) / Fold change /veh PRF1 (11729649_at) / RFU, ZNF638 /// ZNF638-IT1 / Fold change vs veh, ZNF638 /// ZNF638-IT1 / RFU, PANK3 / Fold change vs veh, PANK3 / RFU, SH3YL1 / Fold change vs veh, SH3YL1 / RFU, ZEB2 / Fold change vs veh, ZEB2 / RFU, NRIP1 / Fold change vs veh, NRIP1 / RFU, PTTG1IP / Fold change vs veh, PTTG1IP / RFU, CAPN2 / Fold change vs veh, CAPN2 / RFU, MED14 / Fold change vs veh, MED14 / RFU, SNORA58 / Fold change vs veh, SNORA58 / RFU, C1orf63 / Fold change vs veh, C1orf63 / RFU, LRRFIP1 / Fold change vs veh, LRRFIP1 / RFU, NDUFAF7 / Fold change vs veh, NDUFAF7 / RFU, SLC12A2 / Fold change vs veh, SLC12A2 / RFU, IBTK / Fold change vs veh, IBTK / RFU, ESF1 / Fold change vs veh, ESF1 / Fold change vs veh, TMEM50B / RFU, TAOK1 / Fold change vs veh, TAOK1 / RFU, ACBD3 / Fold change vs veh, ACBD3 / RFU, TMA16 / Fold change vs veh, TMA16 / RFU, RWDD3 / Fold change vs veh, RWDD3 / RFU, BCAT1 / Fold change vs veh, BCAT1 / RFU, EDEM3 / Fold change vs veh, EDEM3 / RFU, TMEM33 / Fold change vs veh, TMEM33 / RFU, WDR75 / Fold change vs veh, WDR75 / RFU, AHCTF1 / Fold change vs veh, AHCTF1 / RFU, TFRC / Fold change vs veh, TFRC / RFU, ZDHHC17 / Fold change vs veh, ZDHHC17 / RFU, NOM1 / Fold change vs veh, NOM1 / RFU, ARL8B / Fold change vs veh, ARL8B / RFU, ZBTB11 / Fold change vs veh, ZBTB11 / RFU, TAMM41 / Fold change vs veh, TAMM41 / RFU, KIAA1704 /// LOC100996395 / Fold change vs veh, KIAA1704 /// LOC100996395 / RFU, ING1 / Fold change vs veh, ING1 / RFU, TRMT61B / Fold change vs veh, TRMT61B / RFU, FUBP3 / Fold change vs veh, FUBP3 / RFU, TP53 / Fold change vs veh, TP53 / RFU, TNKS2 / Fold change vs veh, TNKS2 / RFU, ZFP14 / Fold change vs veh, ZFP14 / RFU, ACTR2 / Fold change vs veh, ACTR2 / RFU, PPP3R1 / Fold change vs veh, PPP3R1 / RFU, PIK3R1 / Fold change vs veh, PIK3R1 / RFU, HNRNPA1 / Fold change vs veh, HNRNPA1 / RFU, RNF170 / Fold change vs veh, RNF170 / RFU, ZNF28 / Fold change vs veh, ZNF28 / RFU, RNGTT / Fold change vs veh, RNGTT / RFU, OGT / Fold change vs veh, OGT / RFU, BRD1 / Fold change vs veh, BRD1 / RFU, MARS / Fold change vs veh, MARS / RFU, ZNF655 / Fold change vs veh, ZNF655 / RFU, FAHD1 / Fold change vs veh, FAHD1 / RFU, BDP1 / Fold change vs veh, BDP1 / RFU, LRRCC1 / Fold change vs veh, LRRCC1 / RFU, ARID1A / Fold change vs veh, ARID1A / RFU, ZNF146 / Fold change vs veh, ZNF146 / RFU, ZNF330 / Fold change vs veh, ZNF330 / RFU, GPN3 / Fold change vs veh, GPN3 / RFU, C9orf123 / Fold change vs veh, C9orf123 / RFU, N4BP2L2 / Fold change vs veh, N4BP2L2 / RFU, ARFIP1 / Fold change vs veh, ARFIP1 / RFU, FAM179B / Fold change vs veh, FAM179B / RFU, BCL10 / Fold change vs veh, BCL10 / RFU, UHRF1BP1L / Fold change vs veh, UHRF1BP1L / RFU, BET1 / Fold change vs veh, BET1 / RFU, CNOT2 / Fold change vs veh, CNOT2 / RFU, ZNF268 / Fold change vs veh, ZNF268 / Fold change vs veh, ZNF507 / RFU, DGCR2 / Fold change vs veh, DGCR2 / RFU, WDSUB1 / Fold change vs veh, WDSUB1 / Fold change vs veh, HSP90B1 /// MIR3652 / RFU, ADSS / Fold change vs veh, ADSS / RFU, GK / Fold change vs veh, GK / RFU, ZNF148 / Fold change vs veh, ZNF148 / RFU, TAF9 / Fold change vs veh, TAF9 / RFU, SLC1A5 / Fold change vs veh, SLC1A5 / RFU, SLMO2 / Fold change vs veh, SLMO2 / RFU, ABCC4 / Fold change vs veh, ABCC4 / RFU, LOC101060439 /// RAP1B / Fold change vs veh, LOC101060439 /// RAP1B / RFU, RFX7 / Fold change vs veh, RFX7 / RFU, GTPBP10 / Fold change vs veh, GTPBP10 / RFU, CNEP1R1 / Fold change vs veh, CNEP1R1 / RFU, BIVM-ERCC5 /// ERCC5 / Fold change vs veh, BIVM-ERCC5 /// ERCC5 / RFU, ILF3 / Fold change vs veh, ILF3 / RFU 11762660_at / Fold change /veh 11762660_at / RFU VCAN (11757783_s_at) / Fold change /veh VCAN (11757783_s_at) / RFU DDX43 (11728927_at) / Fold change /veh DDX43 (11728927_at) / RFU KRT8 (11758188_x_at) / Fold change /veh KRT8 (11758188_x_at) / RFU NKD1 (11759106_at) / Fold change /veh NKD1 (11759106_at) / RFU SRD5A1 (11742802_a_at) / Fold change /veh SRD5A1 (11742802_a_at) / RFU TPSAB1 /// TPSB2 (11721975_s_at) / Fold change /veh TPSAB1 /// TPSB2 (11721975_s_at) / RFU GSTM3 (11746129_a_at) / Fold change /veh GSTM3 (11746129_a_at) / RFU IL23R (11737362_x_at) / Fold change /veh IL23R (11737362_x_at) / RFU TMEM51 (11727254_a_at) / Fold change /veh TMEM51 (11727254_a_at) / RFU PIWIL2 (11732686_x_at) / Fold change /veh PIWIL2 (11732686_x_at) / RFU ORM1 (11744905_x_at) / Fold change /veh ORM1 (11744905_x_at) / RFU CCDC152 (11743942_at) / Fold change /veh CCDC152 (11743942_at) / RFU ECM1 (11717891_a_at) / Fold change /veh ECM1 (11717891_a_at) / RFU IL23R (11748794_a_at) / Fold change /veh IL23R (11748794_a_at) / RFU TNFAIP8L3 (11732012_x_at) / Fold change /veh TNFAIP8L3 (11732012_x_at) / RFU MBOAT4 (11741988_at) / Fold change /veh MBOAT4 (11741988_at) / RFU 11764193_at / Fold change /veh 11764193_at / RFU TMEM53 (11763286_at) / Fold change /veh TMEM53 (11763286_at) / RFU MAGEB2 (11727129_at) / Fold change /veh MAGEB2 (11727129_at) / RFU TMEM200A (11744735_a_at) / Fold change /veh TMEM200A (11744735_a_at) / RFU CCDC152 (11751479_a_at) / Fold change /veh CCDC152 (11751479_a_at) / RFU FAM211A (11726209_a_at) / Fold change /veh FAM211A (11726209_a_at) / RFU RGS16 (11746705_a_at) / Fold change /veh RGS16 (11746705_a_at) / RFU VCAN (11755009_s_at) / Fold change /veh VCAN (11755009_s_at) / RFU RHOB (11743442_s_at) / Fold change /veh RHOB (11743442_s_at) / RFU RGS16 (11720943_a_at) / Fold change /veh RGS16 (11720943_a_at) / RFU RGS16 (11720944_at) / Fold change /veh RGS16 (11720944_at) / RFU, VPS4B / Fold change vs veh, VPS4B / RFU, CREB1 / Fold change vs veh, CREB1 / RFU, DNAJC13 / Fold change vs veh, DNAJC13 / RFU, GNAQ / Fold change vs veh, GNAQ / RFU, CDK5R1 / Fold change vs veh, CDK5R1 / RFU, ZRANB3 / Fold change vs veh, ZRANB3 / RFU, CUL4A / Fold change vs veh, CUL4A / RFU, CCNY / Fold change vs veh, CCNY / RFU, UFL1 / Fold change vs veh, UFL1 / RFU, COG3 / Fold change vs veh, COG3 / RFU, DIAPH2 / Fold change vs veh, DIAPH2 / RFU, SKA2 / Fold change vs veh, SKA2 / RFU, AFF3 / Fold change vs veh, AFF3 / RFU, LMF1 / Fold change vs veh, LMF1 / RFU, IPO11 / Fold change vs veh, IPO11 / RFU, DFFB / Fold change vs veh, DFFB / RFU, FOXP1 / Fold change vs veh, FOXP1 / RFU, CARD8 / Fold change vs veh, CARD8 / RFU, STRN3 / Fold change vs veh, STRN3 / RFU, ADK / Fold change vs veh, ADK / RFU, RASSF2 / Fold change vs veh, RASSF2 / RFU, WIPF1 / Fold change vs veh, WIPF1 / RFU, LARP1B / Fold change vs veh, LARP1B / RFU, RASA1 / Fold change vs veh, RASA1 / RFU, RB1 / Fold change vs veh, RB1 / RFU, PPFIA1 / Fold change vs veh, PPFIA1 / RFU, MAT2A / Fold change vs veh, MAT2A / RFU, CCT5 / Fold change vs veh, CCT5 / RFU, WDR92 / Fold change vs veh, WDR92 / RFU, CUX1 / Fold change vs veh, CUX1 / RFU, TTC7A / Fold change vs veh, TTC7A / RFU, TMEM135 / Fold change vs veh, TMEM135 / RFU, DEPTOR / Fold change vs veh, DEPTOR / RFU, CPM / Fold change vs veh, CPM / RFU, DNAJB6 / Fold change vs veh, DNAJB6 / RFU, CACNA2D3 / Fold change vs veh, CACNA2D3 / RFU, DTX4 / Fold change vs veh, DTX4 / RFU, TFCP2 / Fold change vs veh, TFCP2 / RFU, GMCL1 /// GMCL1P1 / Fold change vs veh, GMCL1 /// GMCL1P1 / RFU, AEBP2 / Fold change vs veh, AEBP2 / RFU, SNHG1 /// SNORD22 /// SNORD25 /// SNORD26 /// SNORD27 /// SNORD28 /// SNORD29 /// SNORD31 / Fold change vs veh, SNHG1 /// SNORD22 /// SNORD25 /// SNORD26 /// SNORD27 /// SNORD28 /// SNORD29 /// SNORD31 / Fold change (Aza/veh), C12orf56 (ProbeSet 11735607_a_at) / Fold change (ACY-1035/veh), C12orf56 (ProbeSet 11735607_a_at) / Fold change (Aza/veh), FGFR1OP (ProbeSet 11751329_s_at) / Fold change (ACY-1035/veh), FGFR1OP (ProbeSet 11751329_s_at) / Fold change (Aza/veh), VPS36 (ProbeSet 11739960_a_at) / Fold change (ACY-1035/veh), VPS36 (ProbeSet 11739960_a_at) / RFU SYPL1 (11715823_x_at) / Fold change /veh SYPL1 (11715823_x_at) / RFU IGFBP7 (11715501_s_at) / Fold change /veh IGFBP7 (11715501_s_at) / RFU REEP3 (11722064_at) / Fold change /veh REEP3 (11722064_at) / RFU IGLL1 (11728026_x_at) / Fold change /veh IGLL1 (11728026_x_at): dose or concentration left out as unconfirmed
Details: MV-4-11 cells, 48 hours

Nc1ncn([C@@H]2O[C@H](CO)[C@@H](O)[C@H]2O)c(=O)n1 [azacitidine]
Fold change /veh TMPRSS4 (11747572_a_at): 1.01
